Consider five compounds from paper PMC10175918 (Communications Biology, 2023).

One series deals with T1, 348 GPCRs (Homo sapiens, UniProt Q5T848).
T1 construct: expressed in transfected cells; host or cells: HEK293A
T1 sequence (Q5T848 24-1215): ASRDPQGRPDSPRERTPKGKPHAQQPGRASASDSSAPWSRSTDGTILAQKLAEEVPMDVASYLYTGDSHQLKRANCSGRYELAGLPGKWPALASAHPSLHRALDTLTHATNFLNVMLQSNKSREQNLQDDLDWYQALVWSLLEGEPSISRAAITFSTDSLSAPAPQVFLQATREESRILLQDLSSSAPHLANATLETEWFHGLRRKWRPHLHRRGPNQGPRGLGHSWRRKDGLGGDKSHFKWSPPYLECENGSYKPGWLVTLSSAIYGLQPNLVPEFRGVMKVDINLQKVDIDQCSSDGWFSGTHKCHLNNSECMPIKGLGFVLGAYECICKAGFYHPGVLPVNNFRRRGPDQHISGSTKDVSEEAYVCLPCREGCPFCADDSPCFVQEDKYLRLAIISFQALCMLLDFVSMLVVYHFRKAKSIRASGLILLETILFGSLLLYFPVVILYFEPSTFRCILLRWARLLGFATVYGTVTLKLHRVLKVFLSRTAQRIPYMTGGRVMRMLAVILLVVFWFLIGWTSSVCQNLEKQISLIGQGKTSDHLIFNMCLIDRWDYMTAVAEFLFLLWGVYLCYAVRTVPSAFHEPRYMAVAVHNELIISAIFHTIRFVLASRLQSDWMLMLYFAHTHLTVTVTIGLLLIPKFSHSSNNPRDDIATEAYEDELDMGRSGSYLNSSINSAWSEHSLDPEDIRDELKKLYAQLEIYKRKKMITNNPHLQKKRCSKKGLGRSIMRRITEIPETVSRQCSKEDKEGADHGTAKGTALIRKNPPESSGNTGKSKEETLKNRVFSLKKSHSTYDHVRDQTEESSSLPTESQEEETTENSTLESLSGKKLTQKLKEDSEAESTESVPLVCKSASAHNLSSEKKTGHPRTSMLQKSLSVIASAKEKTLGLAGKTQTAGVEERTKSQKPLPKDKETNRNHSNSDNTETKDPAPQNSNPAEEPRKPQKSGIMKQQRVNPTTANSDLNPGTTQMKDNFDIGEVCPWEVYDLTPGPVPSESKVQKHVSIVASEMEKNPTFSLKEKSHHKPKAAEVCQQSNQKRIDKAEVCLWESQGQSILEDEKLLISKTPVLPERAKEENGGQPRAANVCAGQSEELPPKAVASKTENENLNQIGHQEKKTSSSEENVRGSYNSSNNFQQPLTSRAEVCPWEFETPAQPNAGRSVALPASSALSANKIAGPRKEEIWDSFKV
Nature of the series: TGFα-shedding assay-based GPCR screening with chimeric Gα subunit proteins. The format is cell-based. As to conditions: 10µM, Favipiravir 100μM.

Series [1] deals with T2, urotensin-II receptor (UTS2R) (Homo sapiens, UniProt Q9UKP6).
T2 construct: expressed in transfected cells; host or cells: HEK293A
T2 sequence (Q9UKP6 1-389): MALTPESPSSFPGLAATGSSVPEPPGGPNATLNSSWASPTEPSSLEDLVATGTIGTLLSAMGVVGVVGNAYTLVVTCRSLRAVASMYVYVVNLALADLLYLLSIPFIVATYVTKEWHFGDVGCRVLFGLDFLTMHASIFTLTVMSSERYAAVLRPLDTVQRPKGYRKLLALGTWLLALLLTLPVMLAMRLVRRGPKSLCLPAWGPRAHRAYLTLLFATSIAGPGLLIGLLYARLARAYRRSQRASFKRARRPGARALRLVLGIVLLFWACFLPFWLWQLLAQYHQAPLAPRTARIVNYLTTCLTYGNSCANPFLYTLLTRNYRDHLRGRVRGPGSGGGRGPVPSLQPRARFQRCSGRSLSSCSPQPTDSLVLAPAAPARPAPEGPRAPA
Nature of the series: TGFα-shedding assay, concentration-response on UTS2R (endogenous G protein), with or without urantide. The format is cell-based.

Another series deals with UTS2R T304A. Nature of the series: TGFα-shedding assay on UTS2R mutant T304A. The format is cell-based, human. As to conditions: cutoff value set to −1, single replicates.
A further series deals with UTS2R D130G. Nature of the series: TGFα-shedding assay on UTS2R SNV mutant D130G. As to conditions: cutoff value set to −1, single replicates. It is filed as cell-based, human.
The test system of another series is UTS2R V159M. Nature of the series: TGFα-shedding assay on UTS2R SNV mutant V159M. The format is cell-based, human. As to conditions: cutoff value set to −1, single replicates.
Series [2] has as its system human induced pluripotent stem cell-derived cardiomyocytes (hiPSC-CMs). Nature of the series: Field potential recording (MEA) in hiPSC-CMs. It is filed as cell-based. As to conditions: for prolonged FPD: 1 µM remdesivir; for FPD delay: remdesivir with UTS2R antagonist (urantide). How it is done: Human induced pluripotent stem cell-derived cardiomyocytes (hiPSC-CMs) were purchased from Fujifilm Cellular Dynamics, Inc. (CDI; iCell cardiomyocytes 2.0). To prepare the probe (MED-PG515A, Alpha MED Sciences), the recording areas were coated with fibronectin and dissolved in Dulbecco’s phosphate-buffered saline to create a 50 µg/mL solution. The recording area was covered with 1–2 µL fibronectin solution, and the probes were incubated at 37 °C for at least 1 h. Cells were thawed and suspended in iCell Cardiomyocytes Plating Medium (CDI) and plated onto the probes at a density of 3.5×10^4 cells in a 2 µL plating medium. The cells were incubated at 37 °C in 5% CO2 for 3–4 h before filling each probe with 1 mL iCell cardiomyocytes maintenance medium (CDI), which was used as the culture medium. The medium was changed every 2–3 days, with the cells cultured in the probes for 5–14 days to obtain a sheet of cardiomyocytes with spontaneous and synchronous electrical activity.
FP recording was carried out[35],[60]. Before measuring FPs, iCell cardiomyocyte sheets were equilibrated for at least 4 h in a fresh culture medium using a 5% CO2 incubator at 37 °C. After equilibration, the probes were transferred to the multi-electrode array (MEA) system (MED64, Alpha med Scientific) and incubated in a humidified 5% CO2 atmosphere. The stability and constancy of the waveforms were confirmed by monitoring the signals for at least 30 min. Once the FPs reached a stable state, they were recorded for 10 min at the baseline and then 24, 48, and 72 h after drug treatment. The stock solutions of drugs were prepared in dimethyl sulfoxide (DMSO) or distilled water at a 1000-fold target concentration. The stock solution was diluted in a culture medium to a final concentration of 0.1% DMSO.
The FP duration (FPD) was defined as the duration from the first to the second peak in FP[35]. The FPD was corrected for the beat rate (inter-spike interval (ISI)) with Fridericia’s formula (Eq. 1), which was the primary method of correction in this study:1 (FPDcF=FPD/(ISI/1000)^1/3).

Details of series [3]: method as in earlier work. As to conditions: intravenous injection, healthy adults; cited from earlier work.
Setting [4] is: GPR158 (G Protein-Coupled Receptor 158), read-out: % GPCR activation compared to TPA.
Setting [5] is: read-out: % GPCR activation compared to TPA, GPR158 (G Protein-Coupled Receptor 158).

“And” between values parts separate entries of the source, which are not always exact repeats. Equal entries are not always repeated. Where two headings read alike, the source gives them in different places.

Consider `NC(=O)c1nc(F)cnc1O` [favipiravir, 6-fluoro-3-hydroxy-2-pyrazinecarboxamide], for which the activation at 10 µM at 348 GPCRs (setting [4]) was determined as 2.24%.
In the case of `CC(C)OC(=O)[C@H](C)N[P@](=O)(OC[C@H]1O[C@@H](n2ccc(=O)[nH]c2=O)[C@](C)(F)[C@@H]1O)Oc1ccccc1` [sofosbuvir], the activation at 10 µM at 348 GPCRs (setting [5]) is 3.31%. The UTS2R activation result in series [1] (TGFα-shedding, screening 10 μM and response curves (Fig. 1a, Supplementary Fig. 1a)) is “did not activate UTS2R”.
Turning to `CCC(CC)COC(=O)[C@H](C)N[P@](=O)(OC[C@H]1O[C@@](C#N)(c2ccc3c(N)ncnn23)[C@H](O)[C@@H]1O)Oc1ccccc1` [remdesivir], the activation at 10 µM is 0.972% at 348 GPCRs (setting [5]) and 15% in series [1] (read-out: UTS2R activation (%AP-TGFα release), compound concentration Log10 (M) -5, without urantide). In series [1], this compound returned an Emax of 47 ± 1.4%. For the same compound, the EC50 is 17.4 µM and 15.9 µM and 10.7 µM and 14 µM and 10.2 µM and 10.8 µM and 12.4 µM (2×) and 18 µM and 11.6 µM and 18.5 µM in series [1] (WT EC50 (Remdesivir), wild-type UTS2R control run alongside the mutant); 12.9 µM in series [1] (pEC50 (TGFα-shedding response for UTS2R), WT UTS2R, without chimeric Gα protein, HEK293A cells). For the same compound, the activation at 3.3 µM in series [1] (read-out: UTS2R activation (%AP-TGFα release), compound concentration Log10 (M) -5.48149, without urantide) came out at 7.9%. Besides, the “⊿pEC50 compared to WT UTS2R” value in the series on UTS2R T304A is -1; in the series on UTS2R D130G it was > 0.3 and 0.2569 and 0.39 and 0.2404 and 0.3246; with UTS2R V159M it was > 0.3 and 0.3136 and 0.3109 and 0.3308 and 0.4558. Further, the “prolonged FPD” value is listed as 1.32 ± 1.38% in series [2] (24 h), 5.60 ± 1.60% in series [2] (48 h) and 15.57 ± 3.49% in series [2] (72 h). The FPD delay in series [2] (24 h) is listed as −1.71 ± 1.60%; in series [2] (48 h) it was −0.61 ± 0.11%. Also, in series [3], the maximum plasma concentration is 9.03 µM.
For `N#C[C@@]1(c2ccc3c(N)ncnn23)O[C@H](CO)[C@@H](O)[C@H]1O` [GS441524], the activation at 10 µM at 348 GPCRs (setting [4]) came out at 0.213%.
Same read-out and setting: as for `CC(C)C(=O)OC[C@H]1O[C@@H](n2ccc(NO)nc2=O)[C@H](O)[C@@H]1O` [molnupiravir], the figure is 1.57%.

Usually Emax stands for the maximal effect, on the per cent scale that the assay sets. What is called EC50 is the midpoint of the concentration-response curve.
